{
  "source": "patent US9695174B2",
  "about": "“Inhibitor of breast cancer resistance protein (BCRP)” (Millennium Pharmaceuticals, Inc., priority 2013, dated 2017)",
  "key": {"BCRP efflux transporter": {"target": "BCRP efflux transporter (Homo sapiens (Human), UniProt Q9UNQ0)", "sequence (Q9UNQ0 whole entry)": "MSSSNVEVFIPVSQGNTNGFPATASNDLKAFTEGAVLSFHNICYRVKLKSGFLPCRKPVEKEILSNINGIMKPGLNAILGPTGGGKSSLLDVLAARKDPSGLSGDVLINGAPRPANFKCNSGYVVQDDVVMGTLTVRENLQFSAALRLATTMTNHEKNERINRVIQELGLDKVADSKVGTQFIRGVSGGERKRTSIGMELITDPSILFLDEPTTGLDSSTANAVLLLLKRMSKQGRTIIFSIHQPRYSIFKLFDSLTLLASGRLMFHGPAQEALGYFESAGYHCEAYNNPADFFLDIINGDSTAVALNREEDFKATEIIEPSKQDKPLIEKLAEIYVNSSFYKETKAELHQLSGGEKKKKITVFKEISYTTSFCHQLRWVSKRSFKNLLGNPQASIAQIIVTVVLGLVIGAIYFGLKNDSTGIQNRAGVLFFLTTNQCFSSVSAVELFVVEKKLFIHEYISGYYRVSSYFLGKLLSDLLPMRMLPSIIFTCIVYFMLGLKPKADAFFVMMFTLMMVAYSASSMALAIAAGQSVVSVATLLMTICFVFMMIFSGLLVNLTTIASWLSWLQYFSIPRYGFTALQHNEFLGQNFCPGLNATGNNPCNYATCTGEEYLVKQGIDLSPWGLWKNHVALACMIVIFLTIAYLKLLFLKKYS", "assay": "Bi-directional transport study in Caco-2 cells, inhibition of BCRP efflux of 3H-estrone-3-sulfate", "procedure": "To determine potency of compounds on inhibition of transporters, bi-directional transport studies are performed in Caco-2 cells (American Type Culture Collection, Manassas, Va.) at 37° C. in air, according toXia et al. (Expression, localization and functional characteristics of breast cancer resistance protein in Caco-2 cells. Drug Met. Disp., 33 (5): 637-643 (2005)). Prior to each experiment, the confluent cell monolayers on Transwell™ inserts are washed and equilibrated for 30 minutes with transport media (Hank's balanced salt solution (HBSS) containing 10 mM of N-2-hydroxyethyl-piperazine-N′-2-ethanesulfonic acid (HEPES) and 10 mM of glucose, pH 7.4). […] At preset time points, 0.05 mL aliquot of receiving solutions are sampled from the basolateral side (for A-to-B transport) or from the apical side (for B-to-A transport), and replaced immediately with an equal amount of fresh transport media except at the last time point (the end of the incubation). The radioactivity in each sample is measured by 1450 MicroBeta TriLux, a microplate scintillation and luminescence counter (PerkinElmer Life Sciences). Radioactivity (^3H) of the dosing solution is measured and used to calculate the initial donor concentration of the substrate."}, "CYP2C8": {"target": "CYP2C8 (Homo sapiens (Human), UniProt P10632)", "sequence (P10632 whole entry)": "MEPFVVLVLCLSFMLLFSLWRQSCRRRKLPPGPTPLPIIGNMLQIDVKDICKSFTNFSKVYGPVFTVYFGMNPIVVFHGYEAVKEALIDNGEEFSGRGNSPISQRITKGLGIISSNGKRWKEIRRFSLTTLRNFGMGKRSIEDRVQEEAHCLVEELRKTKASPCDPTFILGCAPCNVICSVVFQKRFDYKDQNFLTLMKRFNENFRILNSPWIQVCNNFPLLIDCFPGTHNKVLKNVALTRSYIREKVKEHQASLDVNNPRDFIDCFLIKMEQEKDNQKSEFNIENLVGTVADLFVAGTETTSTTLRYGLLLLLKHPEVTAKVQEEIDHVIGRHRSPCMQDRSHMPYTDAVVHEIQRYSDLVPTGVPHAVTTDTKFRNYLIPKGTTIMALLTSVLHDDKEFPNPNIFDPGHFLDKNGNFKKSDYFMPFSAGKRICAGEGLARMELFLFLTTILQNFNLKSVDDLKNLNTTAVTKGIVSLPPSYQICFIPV", "assay": "CYP inhibition in human liver microsomes (amodiaquine)", "format": "in vitro ADME", "conditions": "read-out: CYP inhibition IC50 2C8", "procedure": "(§1) Reactions are initiated by the addition of β-NADPH (2 mM) and MgCl2 (3 mM) in 0.1-M potassium phosphate buffer, pH 7.4. Reactions are incubated for 12 minutes at 37° C., and then terminated by the addition of an equal volume of ACN containing 1-μM carbutamide (IS). The plates are refrigerated at approximately 4° C. for 15 minutes and then centrifuged in order to pellet the precipitated proteins. The supernatants are analyzed by LC/MS/MS for the amount of metabolite formed by each CYP isozyme."}, "[1]": {"assay": "In vivo pharmacokinetic profile in Sprague-Dawley rats", "procedure": "Approximately 200 μL of whole blood is collected from the jugular vein catheter of each animal into tubes containing the anticoagulant dipotassium ethylenediaminetetraacetic acid (K2EDTA) and is further processed into plasma at approximately 4° C. […] Pharmacokinetic analysis of the individual plasma concentration data is performed using a nonvalidated program (Phoenix™ WinNonlin®, Version 6.1 [Pharsight Corp (Mountain View, Calif., USA)])."}, "CYP2C9": {"target": "CYP2C9 (Homo sapiens (Human), UniProt P11712)", "sequence (P11712 whole entry)": "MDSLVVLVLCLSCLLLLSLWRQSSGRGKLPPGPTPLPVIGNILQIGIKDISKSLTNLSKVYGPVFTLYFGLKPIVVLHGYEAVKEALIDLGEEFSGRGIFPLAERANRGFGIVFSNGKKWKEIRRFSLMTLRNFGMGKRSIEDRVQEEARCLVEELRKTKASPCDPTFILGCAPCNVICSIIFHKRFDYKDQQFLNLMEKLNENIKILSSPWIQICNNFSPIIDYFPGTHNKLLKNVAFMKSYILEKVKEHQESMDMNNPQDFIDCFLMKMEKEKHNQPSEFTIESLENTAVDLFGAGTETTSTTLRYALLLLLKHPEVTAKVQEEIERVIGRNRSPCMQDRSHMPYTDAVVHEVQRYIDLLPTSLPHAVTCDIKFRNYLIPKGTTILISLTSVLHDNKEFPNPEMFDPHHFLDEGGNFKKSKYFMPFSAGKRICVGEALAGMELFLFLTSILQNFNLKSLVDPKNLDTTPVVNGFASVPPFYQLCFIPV", "assay": "CYP inhibition in human liver microsomes (diclofenac)", "format": "in vitro ADME", "conditions": "read-out: CYP inhibition IC50 2C9", "procedure": "as §1"}, "CYP3A4/5": {"system": "CYP3A4/5", "assay": "CYP inhibition in human liver microsomes (midazolam)", "format": "in vitro ADME", "conditions": "midazolam substrate, read-out: CYP inhibition IC50 3A-M", "procedure": "as §1"}, "CYP2C19": {"target": "CYP2C19 (Homo sapiens (Human), UniProt P33261)", "sequence (P33261 whole entry)": "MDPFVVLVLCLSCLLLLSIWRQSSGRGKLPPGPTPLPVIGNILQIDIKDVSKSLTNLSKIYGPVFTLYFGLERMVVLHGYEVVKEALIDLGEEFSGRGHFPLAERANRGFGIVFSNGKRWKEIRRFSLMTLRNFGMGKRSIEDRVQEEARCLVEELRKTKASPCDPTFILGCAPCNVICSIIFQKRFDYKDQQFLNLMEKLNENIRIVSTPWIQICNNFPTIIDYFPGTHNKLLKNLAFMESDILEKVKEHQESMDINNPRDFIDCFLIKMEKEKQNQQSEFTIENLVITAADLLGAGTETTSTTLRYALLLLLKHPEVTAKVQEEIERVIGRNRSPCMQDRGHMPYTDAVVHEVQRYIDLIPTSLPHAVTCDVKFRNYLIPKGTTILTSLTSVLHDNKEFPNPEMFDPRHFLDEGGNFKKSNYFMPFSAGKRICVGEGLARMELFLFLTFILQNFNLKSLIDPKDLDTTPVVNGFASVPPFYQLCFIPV", "assay": "CYP inhibition in human liver microsomes (S-mephenytoin)", "format": "in vitro ADME", "conditions": "read-out: CYP inhibition IC50 2C19", "procedure": "as §1"}, "CYP2D6": {"target": "CYP2D6 (Homo sapiens (Human), UniProt P10635)", "sequence (P10635 whole entry)": "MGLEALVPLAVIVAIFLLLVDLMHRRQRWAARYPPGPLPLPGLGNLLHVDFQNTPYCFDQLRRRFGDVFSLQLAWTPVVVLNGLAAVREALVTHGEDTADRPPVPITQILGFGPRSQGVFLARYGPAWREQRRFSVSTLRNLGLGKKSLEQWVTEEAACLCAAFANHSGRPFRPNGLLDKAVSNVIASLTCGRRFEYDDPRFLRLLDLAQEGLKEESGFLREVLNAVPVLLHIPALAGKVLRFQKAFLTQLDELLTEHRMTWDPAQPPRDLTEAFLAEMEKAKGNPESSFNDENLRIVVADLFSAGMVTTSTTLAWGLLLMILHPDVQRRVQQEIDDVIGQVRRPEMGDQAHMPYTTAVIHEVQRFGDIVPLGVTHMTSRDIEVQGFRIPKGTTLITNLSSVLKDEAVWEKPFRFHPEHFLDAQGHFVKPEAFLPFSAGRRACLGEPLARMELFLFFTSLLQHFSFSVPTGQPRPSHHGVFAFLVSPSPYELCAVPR", "assay": "CYP inhibition in human liver microsomes (dextromethorphan)", "format": "in vitro ADME", "conditions": "read-out: CYP inhibition IC50 2D6", "procedure": "as §1"}, "CYP1A2": {"target": "CYP1A2 (Homo sapiens (Human), UniProt P05177)", "sequence (P05177 whole entry)": "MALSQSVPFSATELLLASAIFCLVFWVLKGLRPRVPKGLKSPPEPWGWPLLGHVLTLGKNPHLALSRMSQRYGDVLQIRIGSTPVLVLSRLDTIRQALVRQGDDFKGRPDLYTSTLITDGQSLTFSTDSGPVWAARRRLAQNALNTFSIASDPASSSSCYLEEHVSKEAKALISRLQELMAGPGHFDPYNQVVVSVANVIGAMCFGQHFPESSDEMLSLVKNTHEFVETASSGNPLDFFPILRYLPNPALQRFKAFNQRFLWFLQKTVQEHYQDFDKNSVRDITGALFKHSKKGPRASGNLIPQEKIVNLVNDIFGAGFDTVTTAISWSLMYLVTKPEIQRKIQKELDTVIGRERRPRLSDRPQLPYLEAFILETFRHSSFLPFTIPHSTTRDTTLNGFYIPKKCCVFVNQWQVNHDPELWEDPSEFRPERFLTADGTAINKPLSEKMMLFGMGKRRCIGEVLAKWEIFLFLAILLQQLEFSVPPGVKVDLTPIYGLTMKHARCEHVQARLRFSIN", "assay": "CYP inhibition in human liver microsomes (phenacetin)", "format": "in vitro ADME", "conditions": "read-out: CYP inhibition IC50 1A2", "procedure": "as §1"}, "P-gp transporter": {"target": "P-gp transporter (Homo sapiens (Human), UniProt P08183)", "sequence (P08183 whole entry)": "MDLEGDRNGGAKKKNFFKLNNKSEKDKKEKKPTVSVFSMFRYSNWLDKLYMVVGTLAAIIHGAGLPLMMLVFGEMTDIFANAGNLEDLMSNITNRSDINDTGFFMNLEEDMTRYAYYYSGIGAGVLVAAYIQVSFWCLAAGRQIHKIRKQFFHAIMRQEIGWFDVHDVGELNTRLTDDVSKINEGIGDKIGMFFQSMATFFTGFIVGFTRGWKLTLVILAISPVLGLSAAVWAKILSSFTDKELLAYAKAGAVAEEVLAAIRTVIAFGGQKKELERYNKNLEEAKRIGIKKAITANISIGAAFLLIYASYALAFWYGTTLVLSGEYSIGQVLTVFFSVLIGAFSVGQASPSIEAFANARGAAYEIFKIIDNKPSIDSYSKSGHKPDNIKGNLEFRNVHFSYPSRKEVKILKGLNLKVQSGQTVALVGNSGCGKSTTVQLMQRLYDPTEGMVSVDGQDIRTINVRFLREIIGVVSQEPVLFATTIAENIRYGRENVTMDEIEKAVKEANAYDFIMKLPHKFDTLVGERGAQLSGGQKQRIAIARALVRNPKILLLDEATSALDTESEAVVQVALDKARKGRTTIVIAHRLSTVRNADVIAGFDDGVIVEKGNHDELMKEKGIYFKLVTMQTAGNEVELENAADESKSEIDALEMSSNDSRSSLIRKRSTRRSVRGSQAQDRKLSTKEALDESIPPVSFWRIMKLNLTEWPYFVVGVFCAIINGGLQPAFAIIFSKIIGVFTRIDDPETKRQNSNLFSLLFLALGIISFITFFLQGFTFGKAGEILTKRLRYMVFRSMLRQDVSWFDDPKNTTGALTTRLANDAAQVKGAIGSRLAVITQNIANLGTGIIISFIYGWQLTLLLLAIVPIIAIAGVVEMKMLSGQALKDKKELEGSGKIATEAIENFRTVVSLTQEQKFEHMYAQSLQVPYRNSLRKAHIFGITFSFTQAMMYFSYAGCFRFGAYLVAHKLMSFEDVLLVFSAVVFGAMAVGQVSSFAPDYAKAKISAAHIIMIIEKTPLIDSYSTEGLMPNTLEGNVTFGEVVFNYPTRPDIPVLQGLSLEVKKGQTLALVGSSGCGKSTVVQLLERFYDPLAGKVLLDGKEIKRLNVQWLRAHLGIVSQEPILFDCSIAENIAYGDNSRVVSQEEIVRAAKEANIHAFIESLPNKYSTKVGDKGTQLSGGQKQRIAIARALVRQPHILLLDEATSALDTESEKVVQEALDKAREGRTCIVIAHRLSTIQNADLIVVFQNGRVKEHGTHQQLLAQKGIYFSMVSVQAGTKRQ", "assay": "Bi-directional transport study in Caco-2 cells, inhibition of P-gp efflux of 3H-digoxin", "format": "cell-based"}, "[2]": {"conditions": "read-out: IC50 on BCRP efflux transporter, Caco-2 cells, substrate 3H-Estrone-3-sulfate (26 nM)"}, "[3]": {"conditions": "Sprague-Dawley, rat, plasma, IV-JVC, 2 mg/kg"}, "[4]": {"conditions": "Sprague-Dawley, rat, plasma, PO-JVC, 20 mg/kg"}},
  "note": "Like-named read-outs stand apart in the source and are kept apart here.",
  "data": [
    {"smiles": "COc1cc2[nH]c3c(c2cc1OC)C[C@H]1C(=O)N[C@@H](C)C(=O)N1[C@H]3CC(C)C", "note": "[Compound 8, (3S,6S,12aS)-6-isobutyl-9,10-dimethoxy-3-methyl-2,3,6,7,12,12a-hexahydropyrazino[1′,2′:1,6]pyrido[3,4-b]indole-1,4-dione]", "values": [
      {"measurement": "IC50", "setting": "BCRP efflux transporter; [2]", "result": "> 10", "unit": "µM"}
    ]},
    {"smiles": "COc1cc2[nH]c3c(c2cc1C)C[C@H]1C(=O)N[C@@H](C)C(=O)N1[C@H]3CC(C)C", "note": "[Compound 12, (3S,6S,12aS)-6-isobutyl-9-methoxy-3,10-dimethyl-2,3,6,7,12,12a-hexahydropyrazino[1′,2′:1,6]pyrido[3,4-b]indole-1,4-dione]", "values": [
      {"measurement": "IC50", "setting": "BCRP efflux transporter; [2]", "result": 1.98, "unit": "µM"}
    ]},
    {"smiles": "COc1ccc2c3c([nH]c2c1)[C@H](CC(C)C)N1C(=O)[C@H](CCC(=O)OC(C)(C)C)NC(=O)[C@@H]1C3", "note": "[Ko143, reference compound]", "values": [
      {"measurement": "IC50", "setting": "CYP2C8", "result": "> 30", "unit": "µM"},
      {"measurement": "AUC0-24 hr", "setting": "[1]; IV-JVC, 2 mg/kg", "result": 0.0856, "unit": "µM·h"},
      {"measurement": "CL", "setting": "[1]; IV-JVC, 2 mg/kg", "result": 1100, "unit": "mL/min/kg"},
      {"measurement": "T1/2", "setting": "[1]; IV-JVC, 2 mg/kg", "result": 0.2, "unit": "h"},
      {"measurement": "Vss", "setting": "[1]; IV-JVC, 2 mg/kg", "result": 14.8, "unit": "L/kg"},
      {"measurement": "AUC0-24 hr", "setting": "[1]; PO-JVC, 50 mg/kg", "result": 0.0722, "unit": "µM·h"},
      {"measurement": "Cmax", "setting": "[1]; PO-JVC, 50 mg/kg", "result": 0.0214, "unit": "µM"},
      {"measurement": "F %", "setting": "[1]; PO-JVC, 50 mg/kg", "result": 3, "unit": "%"},
      {"measurement": "Tmax", "setting": "[1]; PO-JVC, 50 mg/kg", "result": 2, "unit": "h"},
      {"measurement": "IC50", "setting": "CYP2C9", "result": 6, "unit": "µM"},
      {"measurement": "IC50", "setting": "CYP3A4/5", "result": "> 30", "unit": "µM"},
      {"measurement": "IC50", "setting": "CYP2C19", "result": 14.7, "unit": "µM"},
      {"measurement": "IC50", "setting": "CYP2D6", "result": "> 30", "unit": "µM"},
      {"measurement": "IC50", "setting": "CYP1A2", "result": 17.5, "unit": "µM"}
    ]},
    {"smiles": "CC(C)C[C@H]1c2[nH]c3ccccc3c2C[C@H]2C(=O)N[C@@H](CCC(=O)OC(C)(C)C)C(=O)N21", "note": "[Ko134, reference compound]", "values": [
      {"measurement": "IC50", "setting": "BCRP efflux transporter", "result": 3.25, "unit": "µM"}
    ]},
    {"smiles": "COc1cc2[nH]c3c(c2cc1OC)C[C@@H]1C(=O)N[C@@H](C)C(=O)N1[C@H]3CC(C)C", "note": "[Compound 8A, (3S,6S,12aR)-6-isobutyl-9,10-dimethoxy-3-methyl-2,3,6,7,12,12a-hexahydropyrazino[1′,2′:1,6]pyrido[3,4-b]indole-1,4-dione]", "values": [
      {"measurement": "IC50", "setting": "BCRP efflux transporter", "result": "> 10", "unit": "µM"}
    ]},
    {"smiles": "COc1cc2[nH]c3c(c2cc1C)C[C@@H]1C(=O)N[C@@H](C)C(=O)N1[C@H]3CC(C)C", "note": "[Compound 12A, (3S,6S,12aR)-6-isobutyl-9-methoxy-3,10-dimethyl-2,3,6,7,12,12a-hexahydropyrazino[1′,2′:1,6]pyrido[3,4-b]indole-1,4-dione]", "values": [
      {"measurement": "IC50", "setting": "BCRP efflux transporter; [2]", "result": "> 10", "unit": "µM"}
    ]},
    {"smiles": "COc1ccc2c3c([nH]c2c1)[C@H](CC(C)C)N1C(=O)[C@H](C)NC(=O)[C@H]1C3", "note": "[Compound 4, (3S,6S,12aR)-6-isobutyl-9-methoxy-3-methyl-2,3,6,7,12,12a-hexahydropyrazino[1′,2′:1,6]pyrido[3,4-b]indole-1,4-dione]", "values": [
      {"measurement": "IC50", "setting": "BCRP efflux transporter; [2]", "result": "> 10", "unit": "µM"}
    ]},
    {"smiles": "COc1ccc2c3c([nH]c2c1)[C@H](CC(C)C)N1C(=O)[C@H](C)NC(=O)[C@@H]1C3", "note": "[Compound (I-1), (3S,6S,12aS)-6-isobutyl-9-methoxy-3-methyl-2,3,6,7,12,12a-hexahydropyrazino[1′,2′:1,6]pyrido[3,4-b]indole-1,4-dione]", "values": [
      {"measurement": "IC50", "setting": "CYP2C8", "result": "> 30", "unit": "µM"},
      {"measurement": "IC50", "setting": "P-gp transporter; Caco-2 cells, substrate 3H-digoxin", "result": "> 30", "unit": "µM"},
      {"measurement": "Selectivity for BCRP over P-gp", "setting": "P-gp transporter; conclusion from Table 2", "result": "selective BCRP inhibitor"},
      {"measurement": "IC50", "setting": "BCRP efflux transporter; [2]", "result": 0.6, "unit": "µM"},
      {"measurement": "Bioavailability (in words)", "setting": "[1]", "result": "high bioavailability"},
      {"measurement": "Clearance (in words)", "setting": "[1]", "result": "low clearance"},
      {"measurement": "CL", "setting": "[1]; IV-JVC, 2 mg/kg", "result": 25.7, "unit": "mL/min/kg"},
      {"measurement": "Vss", "setting": "[1]; IV-JVC, 2 mg/kg", "result": 1.64, "unit": "L/kg"},
      {"measurement": "Tmax", "setting": "[1]; PO-JVC, 20 mg/kg", "result": 1.3, "unit": "h"},
      {"measurement": "AUC", "setting": "[1]; [3]", "result": 4, "unit": "µM·h"},
      {"measurement": "half-life", "setting": "[1]; [3]", "result": 0.9, "unit": "h"},
      {"measurement": "AUC", "setting": "[1]; [4]", "result": 49, "unit": "µM·h"},
      {"measurement": "Cmax", "setting": "[1]; [4]", "result": 10.1, "unit": "µM"},
      {"measurement": "bioavailability", "setting": "[1]; [4]", "result": 123, "unit": "%"},
      {"measurement": "half-life", "setting": "[1]; [4]", "result": 2, "unit": "h"},
      {"measurement": "IC50", "setting": "CYP2C9", "result": "> 30", "unit": "µM"},
      {"measurement": "IC50 at 12 min", "setting": "CYP3A4/5; pH 7.4, probe midazolam", "result": "> 30", "unit": "µM"},
      {"measurement": "IC50", "setting": "CYP2C19", "result": 18.5, "unit": "µM"},
      {"measurement": "IC50", "setting": "CYP2D6", "result": "> 30", "unit": "µM"},
      {"measurement": "IC50", "setting": "CYP1A2", "result": 15.4, "unit": "µM"}
    ]}
  ]
}
